Source: PMC9110316 (Computational and Structural Biotechnology Journal, 2022)
Read-outs that look alike come from different tables or passages of the source. Where a SMILES comes first, the peptide text is derived from it. [ ]: non-standard residue; d: D form. The star is where a group is joined. Nle = CCCC[CH](N)C(=O)O; Cbz = O=C(OCc1ccccc1)*

Columns and labels:
SARS-CoV-2 pseudovirus [1] = assay: microbe, parasite or virus in culture; settings: Severe acute respiratory syndrome-related coronavirus, Huh-7, read-out: EC50, inhibition of SARS-CoV-2 pseudovirus infection
[2] = MTT cell viability assay in Huh7 cells; assay type: cell-based; settings: human
SARS-CoV-2 pseudovirus [3] = assay: microbe, parasite or virus in culture; settings: Severe acute respiratory syndrome-related coronavirus, A549, read-out: EC50, inhibition of SARS-CoV-2 pseudovirus infection
[4] = MTT cell viability assay in A549 cells; assay type: cell-based; settings: human
[5] = target: CTSL protein prepared from human liver tissue (Homo sapiens, UniProt P07711); assay: biochemical; settings: for inhibition at 100 µM: read-out: inhibition against CTSL (inhibition efficiency)
Sequence of CTSL protein prepared from human liver tissue (P07711 114-288 limits assumed): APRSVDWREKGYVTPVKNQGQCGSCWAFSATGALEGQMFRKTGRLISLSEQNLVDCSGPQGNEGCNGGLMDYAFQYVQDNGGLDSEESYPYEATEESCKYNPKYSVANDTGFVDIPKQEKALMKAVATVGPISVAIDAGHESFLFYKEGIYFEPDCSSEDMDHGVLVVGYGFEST
Sequence of CTSL protein prepared from human liver tissue (P07711 292-333 limits assumed): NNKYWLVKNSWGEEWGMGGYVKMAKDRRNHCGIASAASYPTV

SARS-CoV-2 pseudovirus [6] = tested on: SARS-CoV-2 pseudovirus

SMILES	EC50 (SARS-CoV-2 pseudovirus [1])	CC50 at 24 h [2]	EC50 (SARS-CoV-2 pseudovirus [3])	CC50 at 24 h [4]	IC50 [5]	inhibition at 100 µM [5]	SI (selectivity index, ratio of CC50 and EC50) (SARS-CoV-2 pseudovirus [6])
CC(=O)N[C@@H](CC(C)C)C(=O)N[C@@H](CC(C)C)C(=O)N[C@H](C=O)CCCNC(=N)N [leupeptin hemisulfate]	39.3 µM	> 5000 µM	4.26 µM	> 5000 µM	< 0.008 µM	> 90%	
CC(NC(=O)C(Cc1ccccc1)NC(=O)OCc1ccccc1)C(=O)CF (centres unmarked) [Z-FA-FMK]	0.701 µM	328 µM	1.13 µM	> 400 µM	0.0549 µM	> 90%	
CCCC[C@@H](C=O)NC(=O)[C@H](CC(C)C)NC(=O)OCc1ccccc1 [calpeptin]	29.8 µM	116 µM	34.8 µM	595 µM		> 90%	
CC1(C)CCC2=C(O1)c1ccccc1C(=O)C2=O [beta-lapachone]	5.09 µM	47.4 µM			> 100 µM		9.31
CC(C)C[C@@H](C=O)NC(=O)[C@H](CC(C)C)NC(=O)[C@H](CC(C)C)NC(=O)OCc1ccccc1 [Mg-132] (Cbz-Leu-Leu-Leu-aldehyde)	0.212 µM	100 µM	0.159 µM	> 200 µM		> 90%	
CCCCC(C=O)NC(=O)C(CC(C)C)NC(=O)C(CC(C)C)NC(C)=O (stereo not drawn) [Mg-101] (Ac-Leu-Leu-[Nle]-aldehyde; configuration not given here)	3.12 µM	64.3 µM	1.15 µM	355 µM	< 0.008 µM	> 90%	
CCCCCCCCCC(=O)N[C@@H](Cc1c[nH]c2ccccc12)C(=O)N[C@H](CC(N)=O)C(=O)N[C@@H](CC(=O)O)C(=O)N[C@@H]1C(=O)NCC(=O)N[C@@H](CCCN)C(=O)N[C@@H](CC(=O)O)C(=O)N[C@H](C)C(=O)N[C@@H](CC(=O)O)C(=O)NCC(=O)N[C@H](CO)C(=O)N[C@@H]([C@H](C)CC(=O)O)C(=O)N[C@@H](CC(=O)c2ccccc2N)C(=O)O[C@@H]1C [daptomycin]		3570 µM		> 5000 µM	7.87 µM		
